# “Also recorded” adds a separate entry of the source.
# Test system: human recombinant ALDH3A1 (6-His)
# Assay: Phage display panning, Ph.D.-12 random 12-mer library (3 rounds, clones sequenced)
# Format: binding
# Details: for Frequency of appearance: clones out of 33 sequenced after third panning round, 75 μg ALDH3A1 coated, Ph.D.-12 library
# Description: For phage titration, 50 μL of an overnight E. coli ER2738 (host strain) culture were used for the inoculation of 5 mL Luria Broth (LB) which was subsequently cultivated at 37°C (220 rpm). When E. coli ER2738 culture reached an OD600 value of approximately 0.5, 200 μL of the culture were mixed with 10 μL of the phage solution and the mixture was vortexed and incubated for 5 min at room temperature (RT). Subsequently, it was diluted in 3 mL of warm agarose top (0.7% agarose, 0.5% yeast extract, 1% Bacto-Tryptone, 0.5% NaCl, 0.1% MgCl2•H2O) and poured in LB/IPTG/Xgal agar plates (LB agar plates with 0.004% X-gal 0.005% IPTG). Plates were incubated overnight at 37°C.
# The procedure was initiated with the amplification of the phage plaques as described in 2.5 with the exception that after the first centrifugation, 500 μL of the supernatant was transferred into a fresh tube. Then, 200 μL PEG/NaCl were added and the sample was mixed and incubated at RT for 10 min. The sample was subsequently centrifuged at 14,000 rpm, for 10 min at 4°C and the supernatant was removed. After the second round of centrifugation under the same conditions, the remaining supernatant was carefully discarded. Pellet was then re-suspended in 100 μL of iodine buffer (4M NaI, 1 mM EDTA, 10 mM Tris-HCl, pH 8.0) and 250 μL of ethanol were subsequently added. The mixture was incubated at RT for 10 min, centrifuged at 14,000 rpm for 10 min at RT, and the supernatant was discarded. Finally, 70% of pure ethanol was used for DNA wash and the pellet was suspended in 30 μL sterilized ddH2O. Samples were stored at −20°C until needed. Isolated M13 phage ssDNA (∼120 ng) was subjected to agarose gel electrophoresis, and the residual volume of the ssDNA was sent for single extension sequencing from the primer 5′-CCCTCATAGTTAGCGTAACG-3’. Sequencing was conducted by VBC biotech (Vienna, Austria). The resulting sequences were used for the estimation of the respective 12-mer peptides. […]
sequence,measurement,setting,value
"WPTYVSPFRSPP [P1, …, prevailing 12-mer phage display peptide, synthesised by Genecust]",Frequency of appearance,,30 out of 33
same,Frequency of appearance,listed as WPTYVSPFRSPP,30 out of the 33
same,Strength of interaction with recombinant hALDH3A1,inferred from frequency of appearance,strongest and most specific interaction with the recombinant hALDH3A1; also recorded: appeared to bind most efficiently to hALDH3A1

# — paper PMC10067601, “Identification of a peptide ligand for human ALDH3A1 through peptide phage display: Prediction and characterization of protein interaction sites and inhibition of ALDH3A1 enzymatic activity” (Frontiers in Molecular Biosciences, 2023)
